Assay results as given in patent US20200010413A1, “Benzoquinone derivatives for treatment of cancer and methods of making the benzoquinone derivatives” (United Arab Emirates University, priority 2016, published 2020).
One block for each compound: values may come before it.

Legend:
[1] = test system: ct-DNA (calf thymus DNA); experiment: Melting temperature curves by CD, ct-DNA-BQs complexes; type: binding; settings: Tris-KCl buffer pH 7.4
Experimental: Calf thymus ds-DNA (1000 μg/ml; 8×10^−8 M) was prepared by dissolving 10.0 mg of DNA into 10.0 ml Tris-KCl buffer, pH 7.4, without sonication or stirring. To prevent shearing of the large genomic DNA, the solution was gently inverted overnight at 4.0° C. to completely solubilize the DNA. Solutions of DNA are stable for several months at 4.0° C. in Tris-KCl buffer pH 7-8.
(§1) Melting temperature curves for telomere G-quadruplex, ct-DNA and their BQs' adducts were constructed using CD spectral measurements. A 1.0 ml telomeric G-quadruplex (3.93×10^−6 M) or ct-DNA (100.00 ppm) in Tris-KCl-buffer, pH 7.4 was heated in the range 25-95° C. applying 2.0-5.0° C. increments and using 5 min incubation time intervals. The CD spectra in the range 200-400 nm were recorded at each temperature using the scan parameters described in previous section. BQs complexes with G-quadruplex or ct-DNA were prepared by mixing equimolar amounts of G-quadruplex (1.44×10^−4 M) with BQs (1×10^−4 M) or ct-DNA (1000 ppm) with BQs (1×10^−4 M) solution in 1.0 ml KCl-buffer pH 7.4. Solutions were incubated for 30 min before scan.
Collected CD spectra were smoothed and baseline corrected against blank solution. Intensities of CD peaks for G-quadruplex, ct-DNA and their BQs' complexes at 293 and 282 nm were recorded. Plots of CD intensities versus temperature were constructed.

[2] = test system: prostate cancer cells (C42B); experiment: MTT cell viability assay, C42B; type: cell-based, human; settings: for IC50: Homo sapiens, 72 hrs; for loss of cell viability: 72 hours, BQs 1.0-25.0 μM, relative to control (DMSO)
Experimental: (§2) Human cancer cell lines were purchased from Hyclone Laboratories, Utah, USA. Pancreatic cancer cells (L3.6pl and MiaPaCa-2) and breast cancer cells (MCF-7) were maintained in DMEM while lung cancer cells (H1299) and prostate cancer cells (C42B) were maintained in RPMI 1640 media. All media were supplemented with antibiotics (penicillin 50 U/ml; streptomycin 50 μg/ml) and 10% fetal bovine serum (FBS, Biowest, Nouaille, France).
(§3) BQs were tested for their antiprolifrative activity in vitro using MTT assay on human pancreatic cancer cells (L3.6pl and MiaPaCa-2), human lung cancer cells (H1299), human breast cancer cells (MCF-7) and human prostate cancer cells (C42B).
(§4) The cell viability test was conducted by seeding pancreatic (L3.6pl and MiaPaCa-2), lung (H1299), breast (MCF-7) and prostate (C42B) cancer cells into 96-well culture plates at a density of 3×10^3 cells per well. Cells were then exposed to increasing doses (0-25 μM) of BQs for 72 hrs and MTT assay was performed using thymoquinone as a positive control in all experiments. The results were plotted as means±SD of at least three separate experiments using six determinations per experiment. Data were presented as proportional viability (%) by comparing the treated group with the untreated cells whose viability is assumed to be 100%. IC50s of the BQs were estimated from the linear plots of concentrations versus cell viabilities.

[3] = test system: telomeric G-quadruplex DNA; experiment: Melting temperature curves by CD, G-quadruplex-BQs complexes; type: binding, human; settings: for Tm of G-quadruplex-BQ complex / ΔTm of G-quadruplex-BQ complex: CD, equimolar BQ, Tris-KCl buffer pH 7.4; for selectivity towards G-quadruplex over ct-DNA: from differences between ΔTm (G-quadruplex) and ΔTm (ct-DNA)
Experimental: as §1, with “scan. Collected CD spectra were smoothed and baseline corrected against blank solution. Intensities of CD peaks for G-quadruplex, ct-DNA and their BQs' complexes at 293 and 282 nm were recorded. Plots of CD intensities versus temperature were constructed.” for “scan.”

[4] = test system: telomeric G-quadruplex DNA AGGG(TTAGGG)3; experiment: UV-Vis absorption titration, Scatchard plot and molar ratio method; type: binding, human; settings: Scatchard plot of UV-Vis titration, Tris-KCl buffer pH 7.4
Experimental: Telomeric G-quadruplex DNA was prepared by heating gently 2.0 ml of stock single stranded 5′-[…]-3′ DNA (SEQ ID NO: 1) up to 95.0° C. Resultant solution was incubated at 95.0° C. for 10 min. The solution was left to cool gently down to room temperature, then kept in fridge at 4.0° C. overnight before use. A 10^−5 M fluorescein labeled G-quadruplex DNA was prepared similarly using 5′-Flu-telomeric DNA.
Successive amounts of G-quadruplex DNA (AGGG(TTAGGG)3, 1.44×10^−4 M) were added to 1.00 ml of each BQ (5×10^−6 M) in Tris-KCl buffer, pH 7.4. Solution was shacked well after each addition, incubated for 3 min at room temperature and its absorbance was scanned in the range 200-600 nm. Titration was stopped when no change in absorbance was observed. The experiment was reversed by adding successive amounts of the each BQ (1×10^−3 M) to 1.0 ml of 4×10^−6 M G-quadruplex DNA.
The molar ratio method based on measuring UV-Vis absorption was used for determining stoichiometry of G-quadruplex DNA interactions with BQs. A 1.00 ml BQs (5×10^−6 M) was titrated with telomere G-quadruplex (1.44×10^−4 M) in Tris-KCl buffer, pH 7.4. […] A plot of absorbance versus molar ratio [BQs]/[DNA] was constructed. […]
where Af, A and Ab are the absorbance at zero addition, after each addition and at saturation, respectively. […]

[5] = test system: pancreatic cancer cells (MiaPaCa-2); experiment: MTT cell viability assay, MiaPaCa-2; type: cell-based, human; settings: for IC50: Homo sapiens, MIA PaCa-2, MiaPaCa-2, 72 hrs
Experimental: as §2, §3, §4

[6] = test system: lung cancer cells (H1299); experiment: MTT cell viability assay, H1299; type: cell-based, human; settings: for inhibition in cell viability: H1299, 72 hours, BQs 1.0-25.0 μM, relative to control (DMSO)
Experimental: as §2, §3, §4

[7] = test system: pancreatic cancer cells (L3.6pl); experiment: MTT cell viability assay, L3.6pl; type: cell-based, human
Experimental: as §2, §3, §4

[8] = test system: examined cancer cell lines; experiment: MTT cell viability assay, cell line not given (panel); type: cell-based; settings: Homo sapiens; cell line not specified
Experimental: as §2, §3, §4

[9] = test system: breast cancer cells (MCF-7); experiment: MTT cell viability assay, MCF-7; type: cell-based, human; settings: for loss of cell viability: MCF-7, 72 hours, BQs 1.0-25.0 μM, relative to control (DMSO)
Experimental: as §2, §3, §4

IC50 [2]: 43.2 µM
melting point: 280 to 282.5 °C
binding constant (K) towards G-quadruplex DNA [4]: 728000 M⁻¹
SMILES: O=C1C=C(Nc2cccc(C(F)(F)F)c2)C(=O)C=C1Nc1cccc(C(F)(F)F)c1 [BQ1, 2,5-bis-(3-trifluoromethylanilino)-1,4-benzoquinone]
Melting temperature shift (ΔTm) of ct-DNA on BQ binding [1]: 5.8 °C
Tm of G-quadruplex-BQ complex [3]: 75.5 °C
ΔTm of G-quadruplex-BQ complex [3]: 7.5 °C

melting point: > 350 °C
SMILES: O=C1C=C(Nc2cc(F)c(F)c(F)c2)C(=O)C=C1Nc1cc(F)c(F)c(F)c1 [BQ2, 2,5-bis-(3,4,5-trifluoroanilino)-1,4-benzoquinone]

melting point: 323 to 325 °C
IC50 [5]: 7.68 µM
SMILES: COc1ccc(NC2=CC(=O)C(Nc3ccc(OC)cc3)=CC2=O)cc1 [BQ3, 2,5-bis-(4-methoxylanilino)-1,4-benzoquinone]
Melting temperature shift (ΔTm) of ct-DNA on BQ binding [1]: 3.8 °C
selectivity towards G-quadruplex over ct-DNA [3]: low selectivity
ΔTm, G-quadruplex versus ct-DNA ([3]; stabilized both G-quadruplex and ct-DNA): ~0.2 °C

melting point: > 350 °C
IC50 ([6]; Homo sapiens, NCI-H1299, H1299, 72 hrs): 7.48 µM
SMILES: O=C1C=C(Nc2ccc(F)cc2)C(=O)C=C1Nc1ccc(F)cc1 [BQ4, 2,5-bis-(4-fluoroanilino)-1,4-benzoquinone]
Tm of G-quadruplex-BQ complex [3]: 68.1 °C
ΔTm of G-quadruplex-BQ complex [3]: 0.1 °C

IC50 [2]: 42.1 µM
melting point: 342 to 345 °C
SMILES: O=C1C=C(Nc2ccccc2)C(=O)C=C1Nc1ccccc1 [BQ5, 2,5-bis-anilino-1,4-benzoquinone]
loss of cell viability [2]: 27.25%
selectivity towards G-quadruplex over ct-DNA ([3]; listed as BQS): 3.5 folds

melting point: 184 to 188 °C
SMILES: O=C1C=C(NCCN2CCOCC2)C(=O)C=C1NCCN1CCOCC1 [BQ7, 2,5-bis((2-morpholinoethyl)amino)-1,4-benzoquinone]
loss of cell viability [2]: 1.29%
loss in cell viability ([5]; MiaPaCa-2, 72 hours, BQs 1.0-25.0 μM, relative to control (DMSO)): 7.53%
inhibition in cell viability [6]: 20.81%

melting point: 289 to 291 °C
SMILES: O=C1C=C(NC2CCCC2)C(=O)C=C1NC1CCCC1 [BQ8, 2,5-bis-(cyclopentylamino)-1,4-benzoquinone]
inhibition in cell viability ([7]; 72 hours, BQs 1.0-25.0 μM, relative to control (DMSO)): 26.97%

IC50 [8]: < 10 µM
melting point: 159 to 162 °C
SMILES: O=C1C=C(NCCN2CCCC2)C(=O)C=C1NCCN1CCCC1 [BQ9, 2,5-bis((2-(pyrrolidin-1-yl)ethyl)amino)-1,4-benzoquinone]
loss of cell viability [9]: 92.50%
inhibition in cell viability [6]: 84.40%

IC50 [8]: < 10 µM
IC50 ([9]; Homo sapiens, MCF7, MCF-7, 72 hrs): 8.04 µM
melting point: 271 to 274 °C
SMILES: O=C1C=C(NCc2ccc(C(F)(F)F)cc2)C(=O)C=C1NCc1ccc(C(F)(F)F)cc1 [BQ10, 2,5-bis-(4-trifluoromethylbenzylamino)-1,4-benzoquinone]

IC50 [8]: < 10 µM
melting point: 248 to 250 °C
IC50 [5]: 6.18 µM
IC50 ([7]; Homo sapiens, 72 hrs): 9.67 µM
SMILES: O=C1C=C(NCc2ccc(F)cc2)C(=O)C=C1NCc1ccc(F)cc1 [BQ11, 2,5-bis-(4-fluorobenzylamino)-1,4-benzoquinone]
Tm of G-quadruplex-BQ complex [3]: lowest

melting point: 256.5 to 258.5 °C
SMILES: COc1ccc(CNC2=CC(=O)C(NCc3ccc(OC)c(OC)c3)=CC2=O)cc1OC [BQ12, 2,5-bis-(3,4-dimethoxybenzylamino)-1,4-benzoquinone]
loss of cell viability [9]: 24.16%

melting point: 254.5 to 256 °C
SMILES: O=C1C=C(NCc2ccccc2)C(=O)C=C1NCc1ccccc1 [BQ13, 2,5-bis-(benzylamino)-1,4-benzoquinone]

melting point: 237 to 239 °C
SMILES: O=C1C=C(NCc2cc(C(F)(F)F)cc(C(F)(F)F)c2)C(=O)C=C1NCc1cc(C(F)(F)F)cc(C(F)(F)F)c1 [BQ14, 2,5-bis-(3,5-ditrifluoromethylbenzylamino)-1,4-benzoquinone]
